Measurements published in patent US20240158368A1, “Pyrrolidine Main Protease Inhibitors as Antiviral Agents” (AbbVie Inc., priority 2022, published 2024).

How the values were obtained:
MERS Mpro = MERS Mpro (Middle East respiratory syndrome-related coronavirus (isolate United Kingdom/H123990006/2012) (MERS-CoV) (Betacoronavirus England 1), UniProt K9N7C7); assay: biochemical
in vitro [1] = details: rat, microsomes, pH 7.4
in vitro [2] = details: PAMPA
SARS-CoV-2 Mpro = SARS-CoV-2 Mpro (Severe acute respiratory syndrome coronavirus 2 (2019-nCoV) (SARS-CoV-2), UniProt P0DTD1); type: biochemical
[3] = test system: SARS-CoV-2 (strain USA-WA1/2020); assay: microbe, parasite or virus in culture; type: cell-based; details: Severe acute respiratory syndrome coronavirus 2; HeLa-ACE2 cells; read-out: Antiviral CoV-2 EC50
229E Mpro = 229E Mpro (Human coronavirus 229E (HCoV-229E), UniProt P0C6X1); type: biochemical
Chain of 229E Mpro (P0C6X1 2966-3267 limits assumed): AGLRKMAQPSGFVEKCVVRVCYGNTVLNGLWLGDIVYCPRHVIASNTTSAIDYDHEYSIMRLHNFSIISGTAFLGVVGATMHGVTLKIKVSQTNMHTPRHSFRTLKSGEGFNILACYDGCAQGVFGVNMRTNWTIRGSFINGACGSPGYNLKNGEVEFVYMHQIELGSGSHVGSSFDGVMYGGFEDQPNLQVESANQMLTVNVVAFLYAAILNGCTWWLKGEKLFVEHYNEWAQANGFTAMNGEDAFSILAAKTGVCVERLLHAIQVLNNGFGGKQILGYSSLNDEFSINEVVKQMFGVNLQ

229E virus = assay: organism not typed; type: cell-based; details: Huh-7, read-out: Antiviral 229E EC50 (μM)
SARS-CoV-1 Mpro = SARS-CoV-1 Mpro (Severe acute respiratory syndrome coronavirus (SARS-CoV), UniProt P0C6X7); type: biochemical
OC43 Mpro = OC43 Mpro (Human coronavirus OC43 (HCoV-OC43), UniProt P0C6X6); type: biochemical
Chain of OC43 Mpro (P0C6X6 3247-3549 limits assumed): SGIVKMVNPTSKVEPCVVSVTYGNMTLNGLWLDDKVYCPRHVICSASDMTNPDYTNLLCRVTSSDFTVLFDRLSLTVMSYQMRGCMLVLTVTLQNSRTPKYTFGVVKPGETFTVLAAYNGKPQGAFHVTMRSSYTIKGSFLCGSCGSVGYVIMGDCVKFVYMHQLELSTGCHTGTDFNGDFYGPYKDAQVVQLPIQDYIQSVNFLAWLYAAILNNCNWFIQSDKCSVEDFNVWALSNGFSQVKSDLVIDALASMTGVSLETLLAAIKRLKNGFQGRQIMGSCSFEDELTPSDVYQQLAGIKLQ

OC43 virus = assay: microbe, parasite or virus in culture; type: cell-based; details: Betacoronavirus 1, OC43, Huh-7, read-out: Antiviral OC43 EC50 (μM)
in vitro [4] = details: human, microsomes, pH 7.4

Chain of MERS Mpro (K9N7C7 3248-3553 limits assumed): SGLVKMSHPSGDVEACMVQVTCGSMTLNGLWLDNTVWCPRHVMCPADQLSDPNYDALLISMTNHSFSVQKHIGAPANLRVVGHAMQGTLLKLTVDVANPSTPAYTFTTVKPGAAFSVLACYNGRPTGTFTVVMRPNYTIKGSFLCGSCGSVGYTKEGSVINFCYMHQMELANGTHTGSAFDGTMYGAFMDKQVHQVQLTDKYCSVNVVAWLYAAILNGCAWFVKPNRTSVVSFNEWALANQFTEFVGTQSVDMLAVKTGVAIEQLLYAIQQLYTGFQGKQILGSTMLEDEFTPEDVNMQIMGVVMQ

SMILES | EC50 (MERS Mpro) [nM] | CLint scaled (in vitro [1]) [mL/min/kg] | Papp (in vitro [2]) [×10⁻⁶ cm/s] | EC50 (SARS-CoV-2 Mpro) [nM] | EC50 [3] [nM] | EC50 (229E Mpro) [nM] | EC50 (229E virus) [µM] | EC50 (SARS-CoV-1 Mpro) [nM] | EC50 (OC43 Mpro) [nM] | EC50 (OC43 virus) [µM] | CLint scaled (in vitro [4]) [mL/min/kg]
CN1CCN(C(=O)c2cc(C#N)cc(C(F)(F)F)c2N2CC[C@@H](NC(=O)c3cc(=O)[nH]c4c(F)cccc34)C2)CC1 [Compound 14] | 1.33 | 56.7 | 2.73 | 0.46 | 12.9 | 2.1 | 0.15 | 2.73 | 2 | 0.19 | < 30
N#Cc1cc(C(=O)N2CCOCC2)c(N2C[C@H](NC(=O)c3cc(=O)[nH]c4c(F)c(F)ccc34)CC2=O)c(C(F)(F)F)c1 [Compound 34] | 2.28 | < 45 | 1.04 | 1.12 | – | 41.7 | 3.37 | 2.98 | 91.8 | 7.32 | < 26.7
O=C(N[C@@H]1CCN(c2c(C(=O)N3CCOCC3)cc(Cl)cc2C(F)(F)F)C1)c1cc(=O)[nH]c2c(F)cccc12 [Compound 36] | 1.02 | 403 | 14.3 | 0.49 | 9.1 | 2.39 | 0.0578 | 1.43 | 0.84 | 0.0487 | 95
O=C(N[C@@H]1CCN(c2c(C(=O)N3CCOCC3)cc(Br)cc2C(F)(F)F)C1)c1cc(C(F)F)[nH]c(=O)c1 [Compound 61] | 3.25 | 83.3 | 15.7 | 1.93 | 413 | 367 | 63.1 | 4.61 | 52.3 | 11.4 | 51.7
N#Cc1cc(C(=O)N2CCOCC2)c(N2CC[C@@H](NC(=O)c3c(F)c(=O)[nH]c4c(F)cccc34)C2)c(C(F)(F)F)c1 [Compound 5] | 1.26 | < 60 | 7.23 | 0.48 | 10.2 | 1.44 | 0.039 | 1.5 | 1.25 | 0.047 | < 36.7
C[C@@H]1C[C@@H](NC(=O)c2cc(=O)[nH]c3c(F)c(F)ccc23)CN1c1c(C(=O)N2CCOCC2)cc(C#N)cc1C(F)(F)F [Compound 31] | 1.94 | 457 | 11.8 | 0.5 | 8.8 | 2.81 | 0.073 | – | 1.77 | 0.141 | 91.7
Cc1cc(C(=O)N2CCOCC2)c(N2CC[C@@H](NC(=O)c3cc(=O)[nH]c4c(F)cccc34)C2)c(C2CC2)c1 [Compound 45] | 0.7 | 942 | 14.7 | 0.42 | 18.6 | 1.52 | 0.0561 | – | 0.51 | < 0.03 | 352
COc1cccc2[nH]c(=O)cc(C(=O)N[C@@H]3CCN(c4c(C5CC5)ccc(F)c4C(=O)N4CCOCC4)C3)c12 [Compound 78] | 2.31 | 418 | 2.46 | 1.42 | 460 | 1.99 | 0.0481 | – | 1.45 | 0.0978 | 188
COc1cccc2[nH]c(=O)cc(C(=O)N[C@H]3CN(c4c(C(=O)N5CCOCC5)cc(C)cc4C4CC4)C[C@@H]3OC)c12 [Compound 84] | 2.44 | 195 | 3.6 | 0.6 | 35.1 | 2.35 | 0.141 | – | 0.64 | 0.019 | 120
O=C(N[C@@H]1CCN(c2c(C(=O)N3CCOCC3)cc(Br)cc2C(F)(F)F)C1)c1cc(=O)[nH]c2c(F)c(F)ccc12 [Compound 51] | 0.68 | 447 | 14.5 | 0.42 | 16 | 3.56 | 0.0475 | 1.23 | 1.1 | 0.0584 | 125
N#Cc1cc(C(=O)N2CCOCC2)c(N2CC[C@@H](NC(=O)c3cc(=O)[nH]c4c(F)c(F)ccc34)C2)c(C(F)(F)F)c1 [Compound 8] | 1.48 | < 60 | 5.11 | 0.43 | 19 | 3.34 | 0.25 | 1.52 | 4.71 | 0.88 | < 35
